Among the data in PubChem BioAssay (NCI) are TGI and GI50 values, retold here.

Test systems include K-562 leukemia; SNB-75 CNS; DLD-1 colon; SF-539 CNS; NCI-H226 lung; KM20L2 colon; CAKI-1 renal; ACHN renal; OVCAR-4 ovarian.
Experiment in all cases: NCI anticancer screen, dose series, 48 h

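Cultured in 96-well plates, cells were exposed to test compound for 48 hours across five concentrations. GI50 marks 50% less growth. TGI: concentration producing complete growth inhibition.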

In the case of `O=C(N/C(=C\c1cc(Cl)ccc1Cl)c1nc2ccc(Cl)cc2[nH]1)c1ccccc1`, the TGI with K-562 leukemia is 41.1 µM; with SNB-75 CNS, 35.2 µM; in the test on DLD-1 colon it was 26.7 µM; in the test on SF-539 CNS it was 35.1 µM; in the test on NCI-H226 lung, 42.4 µM; in the test with KM20L2 colon, 32.2 µM. Besides, the values for the TGI in the test with CAKI-1 renal, in the test with ACHN renal and in the test with OVCAR-4 ovarian were 66.4 µM, 78.1 µM and 68.6 µM, respectively.
In the case of `CCCCCCCCCCCCCP(=O)(NCC(N)=O)OCC` (stereo not drawn), the TGI in the test on SNB-75 CNS worked out at 19.9 µM; with DLD-1 colon, 32.7 µM; with SF-539 CNS, 31.3 µM; with NCI-H226 lung, 33.5 µM; with KM20L2 colon, 32.7 µM; with ACHN renal, 47.9 µM. The compound further gave a TGI with OVCAR-4 ovarian of 32.2 µM.
For `CN1CCc2c1nc(-c1cccnc1)c1c2N(C)CC1`, the TGI in the test on K-562 leukemia, in the test with SNB-75 CNS, with DLD-1 colon, in the test with SF-539 CNS, in the test on KM20L2 colon and in the test on CAKI-1 renal was above 100 µM throughout. The TGI in the test with ACHN renal and with OVCAR-4 ovarian was above 100 µM throughout.
On to `CCC1C(=O)OCc2c1cc1n(c2=O)C(CC)c2c-1nc1ccccc1c2Cl` (stereo not drawn), for which the TGI in the test on K-562 leukemia was above 100 µM; in the test with DLD-1 colon, above 100 µM; in the test on SF-539 CNS it was 41.1 µM; in the test with NCI-H226 lung, above 100 µM; in the test with KM20L2 colon it was above 100 µM; in the test with CAKI-1 renal it was above 100 µM. In addition, the TGI in the test on ACHN renal and in the test on OVCAR-4 ovarian was above 100 µM throughout.
Take `COC(=O)/C(C#N)=C1\CCc2ccccc21`: the TGI with K-562 leukemia, in the test on SNB-75 CNS, with DLD-1 colon, in the test with SF-539 CNS, with NCI-H226 lung and in the test with KM20L2 colon was above 100 µM each time. Moreover, the TGI in the test with CAKI-1 renal, with ACHN renal and with OVCAR-4 ovarian was above 100 µM each time.
Consider `N.N.N.N.N.O=S(=O)([O-])C(F)(F)F.O=S(=O)([O-])C(F)(F)F.[Os+8]`, for which the GI50 in the test on K-562 leukemia was 7.51 µM; with SNB-75 CNS it was 11.1 µM; in the test on SF-539 CNS, 4.26 µM; with NCI-H226 lung, 2.59 µM; in the test with KM20L2 colon, 20.7 µM; with CAKI-1 renal, 6.61 µM. For the same compound, in the test on ACHN renal, the GI50 is 19.8 µM. The TGI in the test on K-562 leukemia was 61.5 µM; in the test with SNB-75 CNS, 28.5 µM; in the test with SF-539 CNS, 16.2 µM; in the test on NCI-H226 lung, 8.69 µM; in the test on KM20L2 colon, 45.3 µM; in the test on CAKI-1 renal, 30.6 µM. In addition, the TGI in the test with ACHN renal is above 100 µM.
On to `COC(=O)C#CCC1CCCC1C1SCCS1` (stereo not drawn), for which the TGI with K-562 leukemia, with SNB-75 CNS, in the test on DLD-1 colon, in the test on SF-539 CNS, in the test on NCI-H226 lung and in the test on KM20L2 colon was above 100 µM each time. The TGI in the test with CAKI-1 renal, in the test with ACHN renal and in the test on OVCAR-4 ovarian was above 100 µM each time.
In the case of `O=C(O)[C@@H](NS(=O)(=O)c1ccc2ccccc2c1)c1ccccc1`, the TGI in the test with K-562 leukemia, with SNB-75 CNS, in the test with DLD-1 colon, with SF-539 CNS, with KM20L2 colon and in the test on CAKI-1 renal was above 100 µM in each case. Moreover, the TGI with ACHN renal and with OVCAR-4 ovarian was above 100 µM throughout.
On to `O=C(NCC(=O)N1CCOC1=O)OCc1ccccc1`, for which the TGI with K-562 leukemia, in the test on SNB-75 CNS, in the test on DLD-1 colon, with SF-539 CNS, with NCI-H226 lung and in the test with KM20L2 colon was above 100 µM in each case. For the same compound, the TGI with ACHN renal and in the test with OVCAR-4 ovarian was above 100 µM each time.
For `C#C[C@H]1CCCCCC1O` (stereo partly drawn), the TGI with K-562 leukemia, in the test with SNB-75 CNS, in the test with DLD-1 colon, in the test on SF-539 CNS, in the test with NCI-H226 lung and with KM20L2 colon was above 100 µM throughout. The TGI in the test on CAKI-1 renal, with ACHN renal and in the test with OVCAR-4 ovarian was above 100 µM in each case.
With `Cc1cc(C)nc(NS(=O)(=O)c2ccc(NC(=O)c3cccn4c(=O)c5ccccc5nc34)cc2)n1`, the TGI in the test on K-562 leukemia was above 100 µM; in the test with SNB-75 CNS, above 100 µM; with DLD-1 colon it was above 100 µM; with SF-539 CNS, above 100 µM; with NCI-H226 lung it was 97.3 µM; in the test on KM20L2 colon, above 100 µM. Also, the TGI is above 100 µM in the test with ACHN renal and 68.3 µM in the test on OVCAR-4 ovarian.
Turning to `Nc1ccc(C(=O)N/C(=C\c2cccc([N+](=O)[O-])c2)c2nc3ccc(Cl)cc3[nH]2)cc1`, the TGI in the test with K-562 leukemia, in the test with DLD-1 colon, with SF-539 CNS, with KM20L2 colon, in the test with CAKI-1 renal and in the test with ACHN renal was above 100 µM in each case. In the test with OVCAR-4 ovarian, this compound had a TGI above 100 µM.
Regarding `Cc1nc2c(sc(=S)n2-c2ccccc2)c2nc3ccccc3n12`, the TGI with K-562 leukemia, with SNB-75 CNS, in the test with DLD-1 colon, with SF-539 CNS, with NCI-H226 lung and in the test with CAKI-1 renal was above 100 µM each time. Besides, the TGI in the test on ACHN renal and in the test on OVCAR-4 ovarian was above 100 µM each time.
As to `NC(=O)C12CC3CC(CC(Br)(C3)C1)C2`, the TGI in the test on SNB-75 CNS, with DLD-1 colon, in the test on SF-539 CNS, with KM20L2 colon, with CAKI-1 renal and in the test on ACHN renal was above 100 µM in each case. Further, in the test on OVCAR-4 ovarian, the TGI is above 100 µM.
On to `Cc1ccc(NC(=O)CC2SC(N)=NC2=O)cc1C` (stereo not drawn), for which the TGI in the test with K-562 leukemia, in the test on SNB-75 CNS, in the test on DLD-1 colon, in the test with SF-539 CNS, with NCI-H226 lung and in the test on KM20L2 colon was above 100 µM in each case. For the same compound, the TGI in the test with CAKI-1 renal, with ACHN renal and in the test with OVCAR-4 ovarian was above 100 µM each time.
